According to the OligoGym collection:
Several values for one entry are separate records, joined by “and”; a condition that tells them apart may be missing. Equal entries are not always repeated. After the bases stand the sugars from the 5' end (letter, count) and the backbone: PS all phosphorothioate, else s phosphorothioate and o phosphodiester by linkage. Methylation of C is not given here. e = 2'-O-(2-methoxyethyl) (MOE); k = constrained ethyl (cEt); d = 2'-deoxy (DNA)

Target: IRF4
Settings: ASO

| Sequence | target mRNA inhibition (SK-MEL-28, 4 µM) | target mRNA inhibition (MM.1R, 1 µM) | also measured |
| --- | --- | --- | --- |
| GTCAAACTATAATTGG (sugars k3 d10 k3, PS) | 61% | – | – |
| AGTCCTCAAATCTTCA (sugars k3 d10 k3, PS) | 54% | – | – |
| CGTAACAACGACACAC (sugars k3 d10 k3, PS) | – | -35% | – |
| TTGAAGCAACACGGGA (sugars k3 d10 k3, PS) | 61% | – | – |
| TTTCAACTTGTGACCC (sugars k3 d10 k3, PS) | – | 1% | – |
| AAGCTTGATAAAGGCT (sugars k3 d10 k3, PS) | – | 3% | – |
| CTTCACTCAGCAAGTG (sugars k3 d10 k3, PS) | 43% | – | – |
| TTTACTGTTACCGATG (sugars k3 d10 k3, PS) | 48% | – | – |
| CATTCGAGGTGATTCT (sugars k3 d10 k3, PS) | – | 11% | – |
| CCTCAGGGAATCCCTT (sugars k3 d10 k3, PS) | 30% | – | – |
| CCACAGTTGAACCCAT (sugars k3 d10 k3, PS) | 36% | – | – |
| CCTACATACATTAATA (sugars k3 d10 k3, PS) | -7% | – | – |
| AAGTTCATGTAAAGTC (sugars kdddddddddkekeke, PS) | – | 14% and 21% | – |
| TGGCGGATAGATCTGT (sugars k3 d10 k3, PS) | 34% | – | – |
| TTGCAGAGCAATTTAC (sugars k3 d10 k3, PS) | 50% | – | – |
| AGGAGATATTAATTAC (sugars k3 d10 k3, PS) | 57% | – | – |
| GTATGAGAAACGGCCT (sugars k3 d10 k3, PS) | 59% | – | – |
| TGTAGTATGAGAAACG (sugars kkkddddddddkekek, PS) | – | 23% | – |
| AGTTGTAAATGAGTCG (sugars k3 d10 k3, PS) | 85% | – | – |
| GGCTCATGGACATCTG (sugars k3 d10 k3, PS) | 36% | – | – |
| GACTTAGTCAGAATCT (sugars k3 d10 k3, PS) | – | 10% | – |
| AGGCACATCAATGTTT (sugars k2 d9 e3 k2, PS) | – | 36% and 43% | – |

| Sequence | target mRNA inhibition (SK-MEL-28, 4 µM) | target mRNA inhibition (MM.1R, 1 µM) | also measured |
| --- | --- | --- | --- |
| TGTAACGCACCCGCAG (sugars k3 d10 k3, PS) | – | -4% | – |
| GGATGCCACCATCCCA (sugars k3 d10 k3, PS) | -5% | – | – |
| ACACTTTTAGAGAGGA (sugars kkkdddddddddkeke, PS) | – | 37% | – |
| TCCTTAATTATGCAGA (sugars k3 d10 k3, PS) | 44% | – | – |
| TGCAGCACCGTGGTGC (sugars k3 d10 k3, PS) | – | -1% | – |
| AGGGAGCTCATTTTGA (sugars k3 d10 k3, PS) | – | -8% | – |
| CAAGTGTCTAAAGTCC (sugars k3 d10 k3, PS) | – | 3% | – |
| ACCCAAGACTCCCAGA (sugars k3 d10 k3, PS) | 45% | – | – |
| CTGAAACGGTCAGCAG (sugars k3 d10 k3, PS) | – | 3% | – |
| TTTACTAACTGGCTTC (sugars k3 d10 k3, PS) | 45% | – | – |
| GTGTCTAAAGTCCCAT (sugars kkdddddddddkdkdk, PS) | – | 20% and 5% | – |
| TTCATGTAAAGTCTGC (sugars k2 d9 e3 k2, PS) | – | 27% and 35% | – |
| CCCTTCCCCGCGACTC (sugars k3 d10 k3, PS) | 19% | – | – |
| AAGCAGTGATGTCAGG (sugars kdddddddddkekeke, PS) | – | 34% and 35% | – |
| CGGGAGAGCGGAGGCG (sugars k3 d10 k3, PS) | 0% | – | – |
| CAAGACAGGTCTCTAC (sugars k3 d10 k3, PS) | 34% | – | – |
| CTAGTCAGTGTCAATA (sugars k3 d10 k3, PS) | 51% | – | – |
| AGCAACACGGGAATTT (sugars k3 d10 k3, PS) | 57% | – | – |
| ATGATGTATACCAACG (sugars k3 d10 k3, PS) | 86% | – | – |
| AAGCAAGAGCTTACTG (sugars k3 d10 k3, PS) | 14% | – | – |
| CCACGAGGCACCGCAC (sugars k3 d10 k3, PS) | -19% | – | – |
| CCTCAACCGCTGAACT (sugars k3 d10 k3, PS) | 30% | – | – |

| Sequence | target mRNA inhibition (SK-MEL-28, 4 µM) | target mRNA inhibition (MM.1R, 1 µM) | also measured |
| --- | --- | --- | --- |
| TAATTATGCAGAAGCT (sugars k3 d10 k3, PS) | -3% | – | – |
| TTAGACATTACTAGAT (sugars k3 d10 k3, PS) | 45% | – | – |
| CCTTACCTGACAAGAA (sugars k3 d10 k3, PS) | – | -11% | – |
| CGCCGGCACAGGCGCG (sugars k3 d10 k3, PS) | – | 14% | – |
| AGTATGAGAAACGGCC (sugars kkkddddddddkekek, PS) | – | 10% | – |
| TGGGAGTACCCGCAGA (sugars k3 d10 k3, PS) | 26% | – | – |
| TTGGTTGGCTGGTCTT (sugars k3 d10 k3, PS) | – | 76% and 72% | target mRNA inhibition (MM.1R, 0.0625 µM): 40%; target mRNA inhibition (MM.1R, 0.25 µM): 58%; target mRNA inhibition (MM.1R, 4 µM): 89% |
| GGAGCTAGTTTTATGT (sugars k3 d10 k3, PS) | – | -28% | – |
| TATCATATGCCCAATA (sugars k3 d10 k3, PS) | 32% | – | – |
| CCCCAAGGCTACAGGC (sugars k3 d10 k3, PS) | 25% | – | – |
| CTGAACTGTGTAACTC (sugars k3 d10 k3, PS) | 28% | – | – |
| GCCAAAGAGCCCAATT (sugars k3 d10 k3, PS) | 33% | – | – |
| CTCTGCTCTGCACTCG (sugars k3 d10 k3, PS) | 41% | – | – |
| CACATCAATGTTTTAG (sugars kkdddddddddkekek, PS) | – | 19% and 34% | – |
| ATCTGTATCATGCATA (sugars k3 d10 k3, PS) | – | 24% | – |
| AAAAGAGCCGCCACAT (sugars k3 d10 k3, PS) | 16% | – | – |
| CACGCAATGGCAAAAG (sugars k3 d10 k3, PS) | 19% | – | – |
| TCTATAGTGTTCCAGG (sugars k3 d10 k3, PS) | 80% | – | – |
| ACGAAACACAGTCTGC (sugars k3 d10 k3, PS) | 52% | – | – |
| ATGGAGATACTTGTAC (sugars k3 d10 k3, PS) | 62% | – | – |
| CTACTGGGTACATGGC (sugars k3 d10 k3, PS) | 84% | – | – |
| TTTTAAGGCCCTGTCA (sugars k3 d10 k3, PS) | 18% | – | – |

| Sequence | target mRNA inhibition (SK-MEL-28, 4 µM) | target mRNA inhibition (MM.1R, 1 µM) | also measured |
| --- | --- | --- | --- |
| GCTTCCCGTTGCCGCA (sugars k3 d10 k3, PS) | 18% | – | – |
| TAGTTTTATGTTAGCC (sugars k3 d10 k3, PS) | 75% | 45% | target mRNA inhibition (MM.1R, 0.0625 µM): 4%; target mRNA inhibition (MM.1R, 0.074 µM): -1%; target mRNA inhibition (MM.1R, 0.222 µM): 4%; target mRNA inhibition (MM.1R, 0.25 µM): 18%; target mRNA inhibition (MM.1R, 0.666 µM): 22%; target mRNA inhibition (MM.1R, 2 µM): 39%; target mRNA inhibition (MM.1R, 4 µM): 78% |
| GGGCACAAGCATAAAA (sugars k3 d10 k3, PS) | 20% | – | – |
| TGGACTCGGAGCTGAG (sugars k3 d10 k3, PS) | 24% | – | – |
| ATTCCGCGCGCAGAGC (sugars k3 d10 k3, PS) | – | -21% | – |
| CAAGGAGGCGGGCCTT (sugars k3 d10 k3, PS) | -2% | – | – |
| CAACTAGCAGGGCACG (sugars k3 d10 k3, PS) | 38% | – | – |
| CTCCTTTTTTGGCTCC (sugars k4 d8 k4, PS) | 7% | – | – |
| GCACTCTTACTCCGCT (sugars k3 d10 k3, PS) | – | 2% | – |
| TTGGTTGGCTGGTCTT (sugars kkdddddddddekeke, PS) | – | 34% | – |
| CACCCCTTCTTGTGGA (sugars k3 d10 k3, PS) | 40% | – | – |
| GAACGAGGTAAATCTT (sugars k3 d10 k3, PS) | 56% | – | – |
| GAAGTTTACACTGGAT (sugars k2 d9 e3 k2, PS) | – | 28% | – |
| TACATTGAGGCATACA (sugars k3 d10 k3, PS) | 41% | – | – |
| GCATTTTCCAGAAAAT (sugars k4 d8 k4, PS) | 37% | – | – |
| ATTCTCCTCAACCGCT (sugars k3 d10 k3, PS) | 35% | – | – |
| AGAAAACCCCCCTCTC (sugars k3 d10 k3, PS) | 23% | – | – |
| GTCTTAGGTGTTCAAG (sugars k3 d10 k3, PS) | 56% | – | – |
| TGGGATGCCACCATCC (sugars k3 d10 k3, PS) | – | -2% | – |
| CCTGAGTATTTCATAG (sugars k3 d10 k3, PS) | 42% | – | – |
| GTATTTATGCCCTCGC (sugars k3 d10 k3, PS) | 53% | – | – |
| TACTAATTCCATAGAG (sugars k3 d10 k3, PS) | 26% | – | – |

| Sequence | target mRNA inhibition (SK-MEL-28, 4 µM) | target mRNA inhibition (MM.1R, 1 µM) | also measured |
| --- | --- | --- | --- |
| GTAAAGCCCAAAGTTA (sugars k3 d10 k3, PS) | 27% | – | – |
| GTCTACATCTACTCCA (sugars k3 d10 k3, PS) | 38% | – | – |
| ACGCGCGGAGGACCTC (sugars k3 d10 k3, PS) | 13% | – | – |
| TCAACTTGTGACCCAC (sugars k3 d10 k3, PS) | – | 14% | – |
| GATGTGATAGCTGAGC (sugars k2 d9 e3 k2, PS) | – | 52% | – |
| TGCTTTGGGCACCAAA (sugars k3 d10 k3, PS) | 52% | – | – |
| TTTCATAGCTAGTTCA (sugars k3 d10 k3, PS) | 56% | – | – |
| CCTTAGGATAATATAC (sugars k3 d10 k3, PS) | 23% | – | – |
| GACAGTGACTTGCATC (sugars kddddddddddkekek, PS) | – | 8% | – |
| AAGCAAGTGGAGGTCT (sugars k3 d10 k3, PS) | 51% | – | – |
| GTACTTTCTCAAAACC (sugars k3 d10 k3, PS) | 70% | – | – |
| GGCAGTTCTTTCAGCA (sugars k3 d10 k3, PS) | 37% | – | – |
| ACGGAAGTTTACACTG (sugars kkkddddddddkekek, PS) | – | 14% | – |
| AATCAGATGTCACTGA (sugars k3 d10 k3, PS) | 3% | – | – |
| ACGGAAGTTTACACTG (sugars k3 d9 k3 e1, PS) | – | 29% | – |
| GATGTGATAGCTGAGC (sugars kkddddddddddkeke, PS) | – | 64% | – |
| CGAAAAGTCAAAATAC (sugars k3 d10 k3, PS) | 0% | – | – |
| AGCTAACTTACAGGAC (sugars k3 d10 k3, PS) | -4% | – | – |
